Assay results from ChEMBL document CHEMBL1629693, “Intracellular concentrations of posaconazole in different compartments of peripheral blood” (Antimicrob Agents Chemother, 2010).

What was measured:
[1] = Drug uptake in human PMNC assessed as increase in intracellular compound concentration by radiometric assay relative to control; assay type: ADME, cell-based
[2] = Ratio of intracellular to extracellular drug uptake in alveolar macrophages of New Zealand white rabbit infected with Mycobacterium bovis at 1 ug/ml in presence of 100% serum; assay type: ADME, cell-based, Oryctolagus cuniculus; conditions: macrophage
[3] = Ratio of cellular uptake in alveolar macrophages to plasma of healthy human
[4] = Ratio of intracellular to extracellular drug uptake in RBC of New Zealand white rabbit infected with Mycobacterium bovis at 1 ug/ml; assay type: ADME, cell-based, Oryctolagus cuniculus; conditions: erythrocyte
[5] = Ratio of intracellular to extracellular drug uptake in alveolar macrophages of New Zealand white rabbit infected with Mycobacterium bovis at 1 ug/ml; assay type: ADME, cell-based, Oryctolagus cuniculus; conditions: macrophage
[6] = Ratio of intracellular to extracellular drug uptake in alveolar macrophages of New Zealand white rabbit infected with Mycobacterium bovis at 1 ug/ml in presence of 5% serum; assay type: ADME, cell-based, Oryctolagus cuniculus; conditions: macrophage
[7] = Ratio of cellular uptake in alveolar macrophages to plasma of healthy human at 14 doses of […], twice daily; assay type: ADME, organism-based
[8] = Cellular uptake in RBC of patient with hematological malignancies at 200 mg administered 3 to 4 times a day measured by liquid chromatography-tandem mass spectroscopy; conditions: human, in vivo
[9] = Cellular uptake in PMNC of patient with hematological malignancies at 200 mg administered 3 to 4 times a day measured by liquid chromatography-tandem mass spectroscopy; conditions: human, in vivo
[10] = tested on: PBMC; assay: Ratio of intracellular to extracellular cellular uptake in PBMC of patient with hematological malignancies at 200 mg administered 3 to 4 times a day measured by liquid chromatography-tandem mass spectroscopy; conditions: human, in vivo
[11] = tested on: Plasma; assay: Drug uptake in plasma of patient with hematological malignancies at 200 mg administered 3 to 4 times a day measured by liquid chromatography-tandem mass spectroscopy; conditions: human, in vivo
[12] = tested on: PBMC; assay: Cellular uptake in PBMC of patient with hematological malignancies at 200 mg administered 3 to 4 times a day measured by liquid chromatography-tandem mass spectroscopy; conditions: human, in vivo
[13] = Ratio of intracellular to extracellular cellular uptake in RBC of patient with hematological malignancies at 200 mg administered 3 to 4 times a day measured by liquid chromatography-tandem mass spectroscopy; conditions: human, in vivo
[14] = Ratio of intracellular to extracellular cellular uptake in PMNC of patient with hematological malignancies at 200 mg administered 3 to 4 times a day measured by liquid chromatography-tandem mass spectroscopy; conditions: human, in vivo

OC(Cn1cncn1)(Cn1cncn1)c1ccc(F)cc1F [FLUCONAZOLE]
fold change (FC) [1]: 2.2

CCC(C)n1ncn(-c2ccc(N3CCN(c4ccc(OCC5COC(Cn6cncn6)(c6ccc(Cl)cc6Cl)O5)cc4)CC3)cc2)c1=O (stereo not given) [ITRACONAZOLE]
Ratio [2]: 3 | Kp [3]: 27.3 | Ratio [4]: 90.4 | Ratio [5]: 87.9 | Ratio [6]: 18 | Kp [7]: 44.3

CC[C@@H]([C@H](C)O)n1ncn(-c2ccc(N3CCN(c4ccc(OC[C@@H]5CO[C@@](Cn6cncn6)(c6ccc(F)cc6F)C5)cc4)CC3)cc2)c1=O [POSACONAZOLE]
Drug uptake [8]: 50.8 ng/mL | Drug uptake [9]: 4031 ng/mL | Ratio [10]: 22.5 | Drug uptake [11]: 603.2 ng/mL | Drug uptake [12]: 12764 ng/mL | Ratio [13]: 0.09 | Ratio [14]: 7.66

C[C@@H](c1ncncc1F)[C@](O)(Cn1cncn1)c1ccc(F)cc1F [VORICONAZOLE]
fold change (FC) [1]: 8.5
